# Reference: patent US11903912B2, “Composition for preventing and treating breast cancer including selenopsammaplin A as active ingredients” (Seoul National University R & DB Foundation, priority 2019, dated 2024)
# Molecular target: T1, DOT1L (Homo sapiens, UniProt Q8TEK3)
# T1 construct: based on the finding that DOT1L was overexpressed in the breast cancer cell line; endogenous in cells
# Experiment: Inhibition of DOT1L methylation (H3K79) by western blotting
# Type: cell-based
# Settings: breast cancer cell line, FIG. 3
# Description: As confirmed in Example 1, based on the finding that DOT1L was overexpressed in the breast cancer cell line, the effects of the derivatives of the present invention on the methylation of the histone 3 lysine 79 (H3K79) residue, which is an in-vivo target of DOT1L, were examined by western blotting.
# T1 sequence (Q8TEK3 whole entry): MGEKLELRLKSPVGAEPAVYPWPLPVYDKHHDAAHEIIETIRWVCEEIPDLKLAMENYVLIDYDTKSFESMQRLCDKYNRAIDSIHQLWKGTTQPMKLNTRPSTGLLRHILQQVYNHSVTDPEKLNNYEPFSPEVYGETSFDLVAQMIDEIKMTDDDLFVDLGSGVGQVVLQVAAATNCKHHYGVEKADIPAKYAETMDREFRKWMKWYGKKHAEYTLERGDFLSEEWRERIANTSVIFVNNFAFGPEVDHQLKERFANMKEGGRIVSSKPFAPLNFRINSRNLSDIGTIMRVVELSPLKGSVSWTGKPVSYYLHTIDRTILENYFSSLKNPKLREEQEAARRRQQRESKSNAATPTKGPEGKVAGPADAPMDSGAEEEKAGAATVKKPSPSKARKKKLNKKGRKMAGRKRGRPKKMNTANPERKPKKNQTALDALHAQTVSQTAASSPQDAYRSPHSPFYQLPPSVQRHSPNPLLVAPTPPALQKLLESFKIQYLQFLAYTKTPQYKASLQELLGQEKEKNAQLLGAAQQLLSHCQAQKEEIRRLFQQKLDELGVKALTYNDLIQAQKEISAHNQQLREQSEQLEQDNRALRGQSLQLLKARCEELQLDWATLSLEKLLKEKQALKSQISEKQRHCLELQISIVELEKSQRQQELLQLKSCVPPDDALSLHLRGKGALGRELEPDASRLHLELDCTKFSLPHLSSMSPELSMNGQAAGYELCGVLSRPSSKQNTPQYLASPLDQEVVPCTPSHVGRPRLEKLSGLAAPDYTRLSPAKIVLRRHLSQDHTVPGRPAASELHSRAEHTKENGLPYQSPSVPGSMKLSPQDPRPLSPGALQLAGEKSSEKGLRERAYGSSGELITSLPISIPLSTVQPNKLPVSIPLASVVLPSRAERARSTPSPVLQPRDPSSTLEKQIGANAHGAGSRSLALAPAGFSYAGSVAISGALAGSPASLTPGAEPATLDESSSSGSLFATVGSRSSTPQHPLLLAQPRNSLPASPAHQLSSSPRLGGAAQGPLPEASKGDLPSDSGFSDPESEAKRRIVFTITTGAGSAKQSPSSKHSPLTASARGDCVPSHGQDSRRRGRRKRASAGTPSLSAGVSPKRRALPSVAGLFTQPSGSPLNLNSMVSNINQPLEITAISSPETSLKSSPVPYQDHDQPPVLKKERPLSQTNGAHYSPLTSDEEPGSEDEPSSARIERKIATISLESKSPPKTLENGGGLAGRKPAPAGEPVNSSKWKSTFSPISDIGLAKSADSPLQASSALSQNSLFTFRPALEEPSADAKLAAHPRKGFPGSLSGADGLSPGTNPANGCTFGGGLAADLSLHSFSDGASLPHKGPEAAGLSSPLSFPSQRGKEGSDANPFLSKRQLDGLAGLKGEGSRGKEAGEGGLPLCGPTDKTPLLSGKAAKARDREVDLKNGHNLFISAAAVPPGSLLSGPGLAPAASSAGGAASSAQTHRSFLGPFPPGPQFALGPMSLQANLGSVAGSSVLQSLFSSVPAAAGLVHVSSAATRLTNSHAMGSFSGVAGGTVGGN
smiles,measurement,value
"O=C(NCC[Se][Se]CCNC(=O)/C(Cc1ccccc1)=N/O)/C(Cc1ccccc1)=N/O [Compound 2, (2E,2′E)-N,N′-(diselenediylbis(ethane-2,1-diyl))bis(2-(hydroxyimino)-3-phenylpropanamide)]",inhibitory effect on H3K79 methylation,excellent
